Test results reported in patent US9790216B2, “3-substituted cyclopentylamine derivatives” (Merck Patent GmbH, priority 2013, dated 2017).

molecular target: T1, human fatty acid synthase FASN (Homo sapiens, UniProt P49327); experiment: Biochemical activity testing of human fatty acid synthase FASN (NADPH fluorescence intensity enzyme assay); details: human recombinant full-length FASN, inhibition
T1 construct: human recombinant full-length fatty acid synthase; made in house; host or cells: SF9 cells
From the text: • GST=Glutathione-S-transferase • FRET=Fluorescence resonance energy transfer • HTRF®=(homogenous time resolved fluorescence) • HEPES=4-(2-hydroxyethyl)-1-piperazine ethanesulfonic acid buffer • DTT=Dithiothreitol • BSA=bovine serum albumin • CHAPS=detergent; • CHAPS=3-[(3-cholamidopropyl)dimethylammonio]-1-propanesulfonate Biochemical Activity Testing of Human Fatty Acid Synthase FASN
Fatty acid synthase FASN is a multifunctional enzyme with seven catalytic activities thereby synthesising long chain fatty acids especially palmitoyl-CoA in the presence of co-factor NADPH starting from the substrates acetyl-CoA and malonyl-CoA. The reductive synthesis is realized by the oxidation of NADPH to NADP. Since NADPH has a high fluorescence intensity quantum yield compared to NADP with excitation at 340 nm and emission at 460 nm, the reaction can be monitored via the decrease in fluorescence intensity. The biochemical FASN activity testing was performed as 384 well two-time-point kinetic fluorescence intensity assay format in Greiner low volume medium binding 384-well black microtiter plates in a total assay volume of 8 μl and was used for high throughput screen. In each well 3 μl 40 nM human recombinant full-length fatty acid synthase (produced in-house in SF9 cells) were dispensed in the following assay buffer: 50 mM potassium phosphate buffer pH 7.0, 0.005% (w/v) BSA, 2 mM Glutathione, 0.02% Tween-20. Then 2 μl of 200 μM NADPH in assay buffer were added, followed by the addition of the test compounds in 10 dilution concentrations starting with 30 μM (final concentration) to get a final DMSO content of 1% (v/v). The mixture was incubated for at least 15 min at room temperature. After the pre-incubation the enzymatic reaction was started by the addition of 2 μl substrate solution (80 μM acetyl-CoA, 240 μM malonyl-CoA). A first fluorescence intensity measurement (time point one) was performed with an Envision multimode reader (Perkin Elmer LAS Germany GmbH) at excitation wavelength 340 nm (lamp mode) and emission wavelength 460 nm. The reaction was incubated for 30 minutes at room temperature. After this the fluorescence intensity was measured again in the Envision using the same parameters as described above (second time point measurement). The data were analysed by subtracting the first time point measurement value from the second time point measurement value (after the enzymatic reaction). The differences of the emission signals were determined. These reflect directly the conversion rate of NADPH. The full value used was the inhibitor-free reaction. A pharmacological zero value was used like GSK837149A (Sigma-Aldrich) in a final concentration of 5-10 μM. The inhibitory values (IC50) were determined using either the program Symyx Assay Explorer® or Condosseo® from GeneData.

T1 sequence (P49327 whole entry): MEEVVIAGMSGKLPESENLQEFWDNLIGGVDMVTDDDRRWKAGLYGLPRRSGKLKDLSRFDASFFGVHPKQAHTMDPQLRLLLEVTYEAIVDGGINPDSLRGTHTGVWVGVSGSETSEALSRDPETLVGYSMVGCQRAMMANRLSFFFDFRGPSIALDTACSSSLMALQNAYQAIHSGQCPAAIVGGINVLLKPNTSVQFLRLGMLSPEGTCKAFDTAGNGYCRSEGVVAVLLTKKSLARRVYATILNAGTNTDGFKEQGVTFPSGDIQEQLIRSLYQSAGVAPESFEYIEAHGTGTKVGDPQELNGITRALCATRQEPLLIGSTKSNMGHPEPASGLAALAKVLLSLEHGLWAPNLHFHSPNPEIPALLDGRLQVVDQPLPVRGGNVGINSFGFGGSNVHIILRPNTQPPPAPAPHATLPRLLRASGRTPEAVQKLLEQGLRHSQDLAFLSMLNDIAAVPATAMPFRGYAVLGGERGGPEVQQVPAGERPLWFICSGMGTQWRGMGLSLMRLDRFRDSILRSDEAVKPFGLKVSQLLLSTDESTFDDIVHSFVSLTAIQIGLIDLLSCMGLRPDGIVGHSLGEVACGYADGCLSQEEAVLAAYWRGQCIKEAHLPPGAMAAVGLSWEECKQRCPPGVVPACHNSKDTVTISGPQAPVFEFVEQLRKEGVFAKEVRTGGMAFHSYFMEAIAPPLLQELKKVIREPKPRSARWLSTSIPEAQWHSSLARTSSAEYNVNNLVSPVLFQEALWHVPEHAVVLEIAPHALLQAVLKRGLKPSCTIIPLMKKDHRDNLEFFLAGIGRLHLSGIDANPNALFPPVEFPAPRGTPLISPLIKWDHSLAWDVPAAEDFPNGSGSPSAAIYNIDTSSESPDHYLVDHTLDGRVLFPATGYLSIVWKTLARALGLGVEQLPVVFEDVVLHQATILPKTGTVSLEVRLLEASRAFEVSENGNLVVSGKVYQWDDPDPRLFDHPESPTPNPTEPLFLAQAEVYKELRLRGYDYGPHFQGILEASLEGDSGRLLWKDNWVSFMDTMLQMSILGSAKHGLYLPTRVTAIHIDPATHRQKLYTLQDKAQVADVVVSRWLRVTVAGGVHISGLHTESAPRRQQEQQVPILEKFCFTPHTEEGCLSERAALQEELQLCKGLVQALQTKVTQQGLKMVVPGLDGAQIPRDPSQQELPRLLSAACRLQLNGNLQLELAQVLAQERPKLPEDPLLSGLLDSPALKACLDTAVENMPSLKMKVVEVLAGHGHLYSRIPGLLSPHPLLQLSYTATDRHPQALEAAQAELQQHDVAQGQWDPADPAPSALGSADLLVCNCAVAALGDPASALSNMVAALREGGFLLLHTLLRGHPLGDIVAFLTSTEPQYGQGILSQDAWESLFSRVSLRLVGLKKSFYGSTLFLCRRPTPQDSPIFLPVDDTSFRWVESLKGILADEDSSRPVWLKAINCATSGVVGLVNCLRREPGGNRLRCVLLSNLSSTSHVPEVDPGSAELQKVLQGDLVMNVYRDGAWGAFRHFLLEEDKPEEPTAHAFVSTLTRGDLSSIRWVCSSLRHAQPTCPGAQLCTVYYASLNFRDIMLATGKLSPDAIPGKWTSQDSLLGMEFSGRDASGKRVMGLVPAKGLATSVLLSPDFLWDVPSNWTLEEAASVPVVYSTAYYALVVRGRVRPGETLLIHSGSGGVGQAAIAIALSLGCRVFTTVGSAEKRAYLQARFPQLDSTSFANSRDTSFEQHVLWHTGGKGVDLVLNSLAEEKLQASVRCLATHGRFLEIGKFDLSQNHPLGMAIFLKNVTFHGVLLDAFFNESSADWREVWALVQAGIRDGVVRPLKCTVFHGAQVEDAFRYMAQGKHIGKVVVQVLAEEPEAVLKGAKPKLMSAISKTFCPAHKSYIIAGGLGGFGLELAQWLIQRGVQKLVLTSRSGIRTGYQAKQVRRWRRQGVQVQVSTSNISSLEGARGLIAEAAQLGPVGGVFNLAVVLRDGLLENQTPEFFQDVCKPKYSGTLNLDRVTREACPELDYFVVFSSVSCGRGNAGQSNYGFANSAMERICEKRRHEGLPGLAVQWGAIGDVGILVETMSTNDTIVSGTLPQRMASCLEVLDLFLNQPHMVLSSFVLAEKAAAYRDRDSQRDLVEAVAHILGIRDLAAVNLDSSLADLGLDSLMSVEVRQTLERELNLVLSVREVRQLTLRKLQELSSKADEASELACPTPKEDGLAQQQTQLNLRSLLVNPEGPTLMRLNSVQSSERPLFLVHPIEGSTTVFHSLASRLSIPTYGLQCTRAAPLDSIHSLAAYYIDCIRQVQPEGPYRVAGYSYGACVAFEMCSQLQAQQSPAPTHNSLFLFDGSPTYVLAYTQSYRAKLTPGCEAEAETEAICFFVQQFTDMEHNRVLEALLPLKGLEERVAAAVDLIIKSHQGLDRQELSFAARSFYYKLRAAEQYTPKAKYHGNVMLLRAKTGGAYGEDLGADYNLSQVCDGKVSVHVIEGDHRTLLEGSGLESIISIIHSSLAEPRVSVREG

Question: `Cc1nnc([C@H]2CC[C@@H](N(C)C(=O)c3ccc(-c4ccc(Cl)cc4)cc3)C2)o1` [Compound A16, 4′-chloro-biphenyl-4-carboxylic acid methyl-[(1R,3S)-3-(5-methyl-[1,3,4]oxadiazol-2-yl)-cyclopentyl]-amide] was tested. Which IC50 did it give?
Answer: < 300 nM

Question: `Cc1nnc([C@H]2CC[C@@H](N(C)C(=O)c3ccc(-c4ccccc4)cc3)C2)o1` [Compound A24, biphenyl-4-carboxylic acid methyl-[(1R,3S)-3-(5-methyl-[1,3,4]oxadiazol-2-yl)-cyclopentyl]-amide] was tested. Which IC50 did it give?
Answer: < 300 nM

Question: `CCCc1nnc([C@H]2CC[C@@H](N(C)C(=O)c3ccc(-c4nc5ccccc5o4)cc3)C2)o1` [Compound A1, 4-benzoxazol-2-yl-N-methyl-N-[(1 R,3S)-3-(5-propyl-[1,3,4]oxadiazol-2-yl)-cyclopentyl]-benzamide] was tested. Which IC50 did it give?
Answer: < 300 nM

Question: How did the IC50 turn out when `CC(C)c1nnc([C@H]2CC[C@@H](N(C)C(=O)c3ccc(-c4ccc(C#N)cc4)cc3)C2)o1` [Compound A10, 4′-cyano-biphenyl-4-carboxylic acid [(1R,3S)-3-(5-isopropyl-[1,3,4]oxadiazol-2-yl)-cyclopentyl]-methyl-amide] was run?
Answer: < 300 nM
